Results taken from patent US7179588B1, “Assay for the detection of paclitaxel resistant cells in human tumors” (Board of Regents of the University of Texas System, priority 1999, dated 2007).
Entries after “also recorded” stand apart in the source; their conditions may differ. Read-outs that look alike come from different tables or passages of the source.

What was measured:
[1] = system: HAβ1L215H transfected CHO cells; test: Immunofluorescence for HA tag in drug-selected HAβ1L215H transfected populations; assay type: cell-based, Chinese hamster
Protocol: FIG. 8 depicts paclitaxel selects for transfected cells that express mutant HAβ1-tubulin. Cells transfected with HAβ1L215H cDNA were selected for resistance to G418 (A, B) or paclitaxel (C, D) either in the presence (A, C) or absence (B, D) of 1 μg/ml tetracycline. The total resistant cell population was then trypsinized and replated for 24 h in medium without tetracycline or paclitaxel before processing for immunofluorescence with an antibody specific for the HA tag. Arrows in B and C indicate cells that were positive for HAβ1L215H-tubulin expression. Approximately 50% of the cells in panel A, and 100% of the cells in panel D were positive for expression. Bar=10 μm.
Cells were grown on glass coverslips to approximately 70% of confluence and fixed in methanol (−20° C.) for at least 10 min as previously described (Gonzalez-Garay, M. L., and Cabral, F.). The primary antibody used for most experiments was mouse monoclonal 12CA5 (Boehringer Mannheim Corp., Indianapolis, Ind.), specific for the HA tag. This was followed by fluorescein conjugated goat antimouse IgG (Cappel). […]
The ability of β-tubulin mutations to confer paclitaxel resistance was evaluated in 2 ways. […] After the appearance of visible colonies (6–7 d), one duplicate dish was stained with methylene blue and colonies were counted. […]

[2] = system: CHO cell line tTApuro 6.6 transfected with HAβ1L215H cDNA; test: Cloning efficiencies of HAβ1L215H transfected cells under selective conditions; assay type: cell-based, Chinese hamster; settings: for Number of colonies relative to G418+tetracycline, arbitrarily set at 100 / Cloning efficiency (colonies under selective conditions divided by colonies in αMEM+tetracycline): 2 mg/ml G418 or 0.2 μg/ml paclitaxel; for Cloning efficiency (colonies under selective conditions divided by colonies in αMEM+tetracycline): 6–10 d
Protocol: (§1) The ability of β-tubulin mutations to confer paclitaxel resistance was evaluated in 2 ways. In the first, stably transfected cell lines expressing mutant HAβ1-tubulin were seeded at approximately 100 cells/well in replicate wells of a 24-well dish containing increasing concentrations of paclitaxel. The assay was carried out in duplicate with only one set containing 1 μg/ml tetracycline. After 6–7 d, the medium was removed and the resistant colonies were stained with a solution of 0.1% methylene blue as previously described (Cabral, F., Sobel, M. E., and Gottesman, M. M. (1980) Cell 20, 29–36). In a second assay, aliquots (˜7×10^4 cells for selective, and ˜100 cells for non-selective conditions) from total transfected cell populations were seeded into duplicate 6-well dishes containing normal medium (non-selective), 2 mg/ml G418, or 0.2 μg/ml paclitaxel, each with or without 1 μg/ml tetracycline. After the appearance of visible colonies (6–7 d), one duplicate dish was stained with methylene blue and colonies were counted. Cells in the second dish were trypsinized and replated onto glass coverslips for immunofluorescence observation.
To rule out the possibility that we may have biased the results by examining specific clones of mutant HAβ1-tubulin expressing cells, we also tested the relative abilities of G418 and paclitaxel to select mutant HAβ1-tubulin positive cells from the total transfected cell populations. We reasoned that paclitaxel should be a powerful agent for selection of mutant HAβ1-tubulin expressing cells if, and only if, the mutant tubulin is capable of conferring resistance to the drug. To test this prediction, aliquots from an HAβ1L215H transfected cell population were grown under 6 different conditions: normal medium, medium containing 2 mg/ml G418, and medium containing 0.2 μg/ml paclitaxel, each in the presence or absence of 1 μg/ml tetracycline. Using the number of colonies obtained under nonselective conditions (normal medium containing tetracycline) as a control, the relative cloning efficiencies under the various selective conditions are summarized in Table II.
In Table II, CHO cell line tTApuro 6.6 was transfected with HAβ1L215H cDNA. At 24 h post-transfection, the cells were trypsinized and replated in normal medium (αMEM), medium containing 2 mg/ml G418, or medium containing 0.2 μg/ml paclitaxel, all either in the presence or absence of 1 μg/ml tetracycline. After 6–10 d (when visible colonies were seen) the cells were stained with methylene blue and the surviving colonies were counted. The cloning efficiency was calculated as the number of colonies obtained under selective conditions (G418 or paclitaxel) divided by the number of colonies obtained under nonselective conditions (αMEM+tetracycline). Numbers in parentheses are the number of colonies obtained relative to G418+tetracycline which was arbitrarily set at 100.

[3] = system: CHO cells transfected with HAβ1, HAβ1G38E, HAβ1L217R or HAβ1L228F cDNAs; test: Direct selection of paclitaxel resistant transfected cells; assay type: cell-based, Chinese hamster
Protocol: as §1

[4] = system: KB3 cervical carcinoma cell line; settings: preliminary evidence
[5] = system: paclitaxel dependent cell line Tax-18; test: Cross-resistance growth assay in 24 well dishes, Tax-18; settings: for Rescue of growth of drug-dependent Tax-18: no growth without drug
Protocol: Wild-type CHO cells (WT), Taxol resistant mutant Tax 5-6 (Tax^R), and Taxol dependent mutant Tax 18 (Tax^D) were seeded into replicate wells of 24 well dishes at a density of approximately 100 cells per well in increasing concentrations of Taxol or Taxotere as indicated (in μg/ml). The cells were grown 7 days and then stained with methylene blue.

[6] = system: wild-type CHO cells; test: Lethality of paclitaxel to wild-type cells; assay type: cell-based, Chinese hamster; settings: tetracycline-free medium
Protocol: Measurement of drug resistance using a standard cloning efficiency assay was complicated by the observation that clones producing moderate to high levels of mutant HAβ1-tubulin grew poorly and produced many multinucleated cells. This problem was circumvented in 2 different ways. The first came from an observation that among the multinucleated cells, there were some cells that still looked normal. […] To select these cells, clones transfected with mutant HAβ1-tubulin were incubated in tetracycline-free medium containing a concentration of paclitaxel (0.2 μg/ml) that is lethal to wild-type cells. Multiple individual colonies were selected and tested for their dose response to paclitaxel; representative results are shown in FIG. 7. […] Thus HAβ1, HAβ1L215H, HAβ1L217R, and HAβ1L228F expressing cells were all tested for paclitaxel sensitivity in the presence or absence of tetracycline.

[7] = system: Paclitaxel Resistant CHO Cells
Protocol: Metabolic labeling was for 1 h in methionine-free MEM (ICN Biomedicals Inc., Costa Mesa, Calif.) containing 30 μCi/ml Tran ^35S-label (1,000 Ci/mmol; ICN Biomedicals).

[8] = system: paclitaxel resistant human ovarian cells; settings: gradually selected to higher levels of resistance; cited from earlier work
[9] = system: CHO cells transfected with HAβ1, HAβ1L215H, HAβ1L217R or HAβ1L228F; test: Paclitaxel dose response of stably transfected cell lines with or without tetracycline (24-well, methylene blue); assay type: cell-based, Chinese hamster; settings: for Sensitivity to paclitaxel: cells transfected with mutant HAβ1-tubulin
Protocol: FIG. 7 depicts mutant HAβ1-tubulins confer paclitaxel resistance. Approximately 100 cells were seeded into replicate wells of 24-well dishes containing the indicated concentrations of paclitaxel (in ng/ml) with (“+”) or without (“−”) 1 μg/ml tetracycline. The cells were allowed to grow for 6–7 d and were then stained with methylene blue. The cell lines came from transfections with HAβ1 (A), HAβ1L215H (B), HAβ1L217R (C), or HAβ1L228F (D).
as §1
Measurement of drug resistance using a standard cloning efficiency assay was complicated by the observation that clones producing moderate to high levels of mutant HAβ1-tubulin grew poorly and produced many multinucleated cells. This problem was circumvented in 2 different ways. The first came from an observation that among the multinucleated cells, there were some cells that still looked normal. […]

[10] = system: Taxol resistant mutant Tax 5-6; test: Cross-resistance growth assay in 24 well dishes, Tax 5-6; assay type: cell-based, Chinese hamster; settings: about 100 cells per well, grown 7 days
[11] = system: paclitaxel-resistant cells; settings: frequently observed; cited from earlier work

CN[C@@H]1[C@@H](O)[C@@H](O[C@@H]2[C@@H](O)[C@H](O[C@H]3O[C@H]([C@@H](C)O)[C@@H](O)[C@H](O)[C@H]3N)[C@@H](N)C[C@H]2N)OC[C@]1(C)O [G418]
HA-positive cells in the selected population ([1]; selected under inducing conditions (no tetracycline)): < 10%
Number of colonies relative to G418+tetracycline, arbitrarily set at 100 ([2]; +Tetracycline 1 μg/ml): 100
Cloning efficiency (colonies under selective conditions divided by colonies in αMEM+tetracycline) ([2]; +Tetracycline 1 μg/ml): 1.3 × 10^−3
Lowering of selection efficiency under inducing conditions (no tetracycline) versus with tetracycline ([2]; G418 2 mg/ml): about 40%
Number of colonies relative to G418+tetracycline, arbitrarily set at 100 ([2]; −Tetracycline): 60
Cloning efficiency (colonies under selective conditions divided by colonies in αMEM+tetracycline) ([2]; −Tetracycline): 7.9 × 10^−4

CC(=O)O[C@H]1C(=O)[C@@]2(C)[C@H]([C@H](OC(=O)c3ccccc3)[C@]3(O)C[C@H](OC(=O)[C@H](O)[C@@H](NC(=O)c4ccccc4)c4ccccc4)C(C)=C1C3(C)C)[C@]1(OC(C)=O)CO[C@@H]1C[C@@H]2O [Paclitaxel, paclitaxel]
Paclitaxel resistant cells obtained by direct selection ([3]; HAβ1L217R and HAβ1L228F cDNAs): many paclitaxel resistant colonies
Paclitaxel resistant cells obtained by direct selection ([3]; HAβ1 or HAβ1G38E cDNAs, repeated three times): no paclitaxel resistant cells were obtained
HA-positive cells in the selected population ([1]; selected under non-inducing conditions (with tetracycline), assayed following induction): < 5%
Selection under inducing conditions less efficient than G418 with tetracycline ([2]; 0.2 μg/ml paclitaxel, no tetracycline): 5 times
Fewer colonies under non-inducing conditions than under inducing conditions ([2]; 0.2 μg/ml paclitaxel, with tetracycline): 18 fold
Number of colonies relative to G418+tetracycline, arbitrarily set at 100 ([2]; +Tetracycline 1 μg/ml): 1
Cloning efficiency (colonies under selective conditions divided by colonies in αMEM+tetracycline) ([2]; +Tetracycline 1 μg/ml): 1.4 × 10^−5
Number of colonies relative to G418+tetracycline, arbitrarily set at 100 ([2]; −Tetracycline): 18
Cloning efficiency (colonies under selective conditions divided by colonies in αMEM+tetracycline) ([2]; −Tetracycline): 2.3 × 10^−4
Drug sensitivity of paclitaxel-selected mutant KB3 cells [4]: resistant
Rescue of growth of drug-dependent Tax-18 ([5]; grown 7 d): rescued
Concentration lethal to wild-type cells [6]: 0.2 µg/mL
Resistant or Dependent ([7]; cell line Tax 1–4, β-tubulin L215H): R
Resistant or Dependent ([7]; cell line Tax 1–19, β-tubulin L215R): R
Resistant or Dependent ([7]; cell line Tax 4–9, β-tubulin L215H): R
Resistant or Dependent ([7]; cell line Tax 6–9, β-tubulin L217R): R
Fold resistance to paclitaxel of cell lines selected in one step ([7]; single-step selection with a single lethal dose of paclitaxel): 2-3 fold
Fold resistance versus unselected cells [8]: 24 fold
Sensitivity to paclitaxel, HAβ1 expressed versus not expressed ([9]; HAβ1 (wild-type) transfected cells, with or without tetracycline): same sensitivity
Sensitivity to paclitaxel ([9]; grown with tetracycline): wild-type paclitaxel sensitivity
Sensitivity to paclitaxel ([9]; grown without tetracycline): clear resistance
Resistance of Tax 5-6 compared to wild-type cells [10]: more resistant

CC(=O)O[C@@]12CO[C@@H]1C[C@H](O)[C@@]1(C)C(=O)[C@H](O)C3=C(C)[C@@H](OC(=O)[C@H](O)[C@@H](NC(=O)OC(C)(C)C)c4ccccc4)C[C@@](O)([C@@H](OC(=O)c4ccccc4)[C@H]21)C3(C)C [Taxotere]
Resistance of Tax-18 to cytotoxic effects compared to wild-type cells [5]: resistant
Rescue of growth of drug-dependent Tax-18 ([5]; grown 7 d): rescued
Resistance of Tax 5-6 compared to wild-type cells [10]: more resistant

COc1cc2c(c(OC)c1OC)-c1ccc(OC)c(=O)cc1[C@@H](NC(C)=O)CC2 [colchicine]
Sensitivity of paclitaxel-resistant cells to the drug [11]: increased sensitivity

C/C(=C\c1csc(C)n1)[C@@H]1C[C@@H]2O[C@]2(C)CCC[C@H](C)[C@H](O)[C@@H](C)C(=O)C(C)(C)[C@@H](O)CC(=O)O1 [epothilone-B]
Resistance of Tax-18 to cytotoxic effects compared to wild-type cells ([5]; grown 7 d, stained with methylene blue): more resistant
Rescue of growth of drug-dependent Tax-18 ([5]; grown 7 d): rescued

CC[C@]1(O)C[C@@H]2CN(CCc3c([nH]c4ccccc34)[C@@](C(=O)OC)(c3cc4c(cc3OC)N(C)[C@H]3[C@@](O)(C(=O)OC)[C@H](OC(C)=O)[C@]5(CC)C=CCN6CC[C@]43[C@@H]65)C2)C1 [vinblastine]
Drug sensitivity of paclitaxel-selected mutant KB3 cells [4]: hypersensitive
Sensitivity of paclitaxel-resistant cells to the drug [11]: increased sensitivity; also recorded: hypersensitive

CC[C@]1(O)C[C@H]2CN(CCc3c([nH]c4ccccc34)[C@@](C(=O)OC)(c3cc4c(cc3OC)N(C=O)[C@H]3[C@@](O)(C(=O)OC)[C@H](OC(C)=O)[C@]5(CC)C=CCN6CC[C@]43[C@@H]65)C2)C1 [vincristine]
Sensitivity of paclitaxel-resistant cells to the drug [11]: hypersensitive
